Results: the kinase profiling compilation of Christmann-Franck et al. (2016)
Values belong to the compound of their own block, whether it stands above or below them.

Experiments:
Assay in all cases: KINOMEscan competition binding
Conditions in all cases: compound 10.0 µM
ULK2 (human) = ULK2 (human) (UniProt Q8IYT8)
CDK3 (human) = CDK3 (human) (UniProt Q00526)
EPHA7 (human) = EPHA7 (human) (UniProt Q15375)
STK25 (human) = STK25 (human) (UniProt O00506)
DCLK2 (human) = DCLK2 (human) (UniProt Q8N568)
Chain of DCLK2 (human) (Q8N568 whole entry, looked up): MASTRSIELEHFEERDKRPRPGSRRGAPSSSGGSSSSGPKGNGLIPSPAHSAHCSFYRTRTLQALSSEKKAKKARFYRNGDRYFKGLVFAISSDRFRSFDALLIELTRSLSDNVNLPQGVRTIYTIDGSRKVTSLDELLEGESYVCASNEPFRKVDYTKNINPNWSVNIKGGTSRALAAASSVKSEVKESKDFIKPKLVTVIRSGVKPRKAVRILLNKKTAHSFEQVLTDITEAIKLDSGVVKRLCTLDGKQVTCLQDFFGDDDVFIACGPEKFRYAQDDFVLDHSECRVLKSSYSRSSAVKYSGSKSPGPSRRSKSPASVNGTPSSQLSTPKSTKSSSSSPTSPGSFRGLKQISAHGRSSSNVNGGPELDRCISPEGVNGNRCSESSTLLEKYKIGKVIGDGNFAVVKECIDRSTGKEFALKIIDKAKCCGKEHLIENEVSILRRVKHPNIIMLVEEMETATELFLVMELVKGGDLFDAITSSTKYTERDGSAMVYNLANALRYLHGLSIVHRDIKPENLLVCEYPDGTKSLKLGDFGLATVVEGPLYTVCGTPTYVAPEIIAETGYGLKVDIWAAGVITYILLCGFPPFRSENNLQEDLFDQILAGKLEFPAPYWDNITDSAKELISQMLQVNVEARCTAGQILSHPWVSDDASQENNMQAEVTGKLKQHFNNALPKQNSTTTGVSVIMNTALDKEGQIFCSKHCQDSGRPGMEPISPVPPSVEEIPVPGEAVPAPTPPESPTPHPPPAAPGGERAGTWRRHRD

PKN1 (human) = PKN1 (human) (UniProt Q16512)
NUAK1 (human) = NUAK1 (human) (UniProt O60285)
Chain of NUAK1 (human) (O60285 whole entry, looked up): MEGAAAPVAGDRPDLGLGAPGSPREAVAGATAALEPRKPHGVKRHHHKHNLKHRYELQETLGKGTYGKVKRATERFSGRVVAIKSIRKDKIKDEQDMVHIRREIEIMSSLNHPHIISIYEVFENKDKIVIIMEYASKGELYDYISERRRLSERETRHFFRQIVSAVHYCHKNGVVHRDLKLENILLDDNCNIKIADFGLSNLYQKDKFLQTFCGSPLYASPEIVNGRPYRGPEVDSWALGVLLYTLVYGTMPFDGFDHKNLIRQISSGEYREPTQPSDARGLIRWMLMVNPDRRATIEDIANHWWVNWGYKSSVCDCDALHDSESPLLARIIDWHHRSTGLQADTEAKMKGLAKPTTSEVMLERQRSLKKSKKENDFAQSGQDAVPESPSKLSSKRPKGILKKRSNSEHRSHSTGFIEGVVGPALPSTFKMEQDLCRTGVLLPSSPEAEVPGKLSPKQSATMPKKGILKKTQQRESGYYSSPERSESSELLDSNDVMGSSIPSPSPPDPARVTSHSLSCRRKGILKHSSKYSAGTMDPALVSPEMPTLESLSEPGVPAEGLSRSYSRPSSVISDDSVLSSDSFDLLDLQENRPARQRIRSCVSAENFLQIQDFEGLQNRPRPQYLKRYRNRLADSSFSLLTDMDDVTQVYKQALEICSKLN

[1] = system: FLT3 (human), P36888 [K663Q]
KDR (human) = KDR (human) (UniProt P35968)
Chain of KDR (human) (P35968 whole entry, looked up): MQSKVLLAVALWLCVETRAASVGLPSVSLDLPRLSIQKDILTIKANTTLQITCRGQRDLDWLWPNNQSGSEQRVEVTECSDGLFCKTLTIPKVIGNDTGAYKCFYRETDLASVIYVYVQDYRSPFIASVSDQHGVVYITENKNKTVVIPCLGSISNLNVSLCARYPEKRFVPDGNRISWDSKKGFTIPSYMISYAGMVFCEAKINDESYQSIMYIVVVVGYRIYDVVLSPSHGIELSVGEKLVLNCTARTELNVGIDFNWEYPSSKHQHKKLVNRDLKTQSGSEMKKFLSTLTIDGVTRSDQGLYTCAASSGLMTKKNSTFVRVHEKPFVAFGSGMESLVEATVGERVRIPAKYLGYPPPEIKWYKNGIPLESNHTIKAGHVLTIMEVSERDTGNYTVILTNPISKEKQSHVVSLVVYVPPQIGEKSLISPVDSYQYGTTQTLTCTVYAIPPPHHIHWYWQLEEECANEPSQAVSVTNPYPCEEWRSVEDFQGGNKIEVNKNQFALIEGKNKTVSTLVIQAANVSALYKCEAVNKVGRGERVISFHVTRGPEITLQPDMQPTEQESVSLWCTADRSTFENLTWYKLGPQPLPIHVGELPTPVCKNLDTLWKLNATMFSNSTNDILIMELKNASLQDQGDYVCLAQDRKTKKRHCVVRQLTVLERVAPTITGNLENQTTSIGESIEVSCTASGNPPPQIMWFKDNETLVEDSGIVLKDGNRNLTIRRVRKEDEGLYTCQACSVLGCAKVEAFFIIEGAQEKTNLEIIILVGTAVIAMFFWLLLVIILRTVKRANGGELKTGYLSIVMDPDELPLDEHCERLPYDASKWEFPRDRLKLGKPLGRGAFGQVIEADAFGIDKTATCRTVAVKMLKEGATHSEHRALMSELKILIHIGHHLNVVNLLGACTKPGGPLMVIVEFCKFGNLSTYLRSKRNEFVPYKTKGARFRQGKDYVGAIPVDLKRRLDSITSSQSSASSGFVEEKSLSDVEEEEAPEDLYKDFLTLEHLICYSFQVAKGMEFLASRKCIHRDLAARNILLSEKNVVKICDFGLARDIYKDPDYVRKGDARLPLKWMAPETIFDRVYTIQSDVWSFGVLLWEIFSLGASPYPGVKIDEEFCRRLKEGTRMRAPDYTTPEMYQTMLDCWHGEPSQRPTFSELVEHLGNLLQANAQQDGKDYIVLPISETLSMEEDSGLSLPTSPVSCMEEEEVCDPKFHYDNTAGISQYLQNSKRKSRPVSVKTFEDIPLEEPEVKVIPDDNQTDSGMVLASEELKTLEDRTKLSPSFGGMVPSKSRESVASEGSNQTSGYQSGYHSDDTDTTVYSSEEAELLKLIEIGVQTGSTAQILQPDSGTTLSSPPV

BMPR2 (human) = BMPR2 (human) (UniProt Q13873)
PRKACB (human) = PRKACB (human) (UniProt P22694)
[2] = system: RET (human), P07949 [M918T]
[3] = system: ABL1 (human), P00519 [F317I]
CHUK (human) = CHUK (human) (UniProt O15111)
RAF1 (human) = RAF1 (human) (UniProt P04049)
MST1R (human) = MST1R (human) (UniProt Q04912)
STK39 (human) = STK39 (human) (UniProt Q9UEW8)
MAPK9 (human) = MAPK9 (human) (UniProt P45984)
Chain of MAPK9 (human) (P45984 whole entry, looked up): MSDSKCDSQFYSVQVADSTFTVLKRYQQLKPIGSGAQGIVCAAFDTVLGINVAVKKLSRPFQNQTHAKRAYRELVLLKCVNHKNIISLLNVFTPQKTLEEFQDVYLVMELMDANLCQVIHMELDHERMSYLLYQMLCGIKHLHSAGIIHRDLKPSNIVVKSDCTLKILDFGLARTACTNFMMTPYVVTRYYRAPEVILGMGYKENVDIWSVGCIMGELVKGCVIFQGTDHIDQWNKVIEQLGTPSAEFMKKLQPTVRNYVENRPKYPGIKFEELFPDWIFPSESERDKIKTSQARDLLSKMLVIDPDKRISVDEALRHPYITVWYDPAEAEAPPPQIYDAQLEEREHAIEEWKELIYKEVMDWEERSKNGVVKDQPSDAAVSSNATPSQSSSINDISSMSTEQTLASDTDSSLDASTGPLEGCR

PKMYT1 (human) = PKMYT1 (human) (UniProt Q99640)
MARK2 (human) = MARK2 (human) (UniProt Q7KZI7)
RPS6KA4 KD1 (human) = RPS6KA4 KD1 (human) (UniProt O75676)
CDC42BPA (human) = CDC42BPA (human) (UniProt Q5VT25)
HIPK1 (human) = HIPK1 (human) (UniProt Q86Z02)
PRKCQ (human) = PRKCQ (human) (UniProt Q04759)
STK24 (human) = STK24 (human) (UniProt Q9Y6E0)
HIPK4 (human) = HIPK4 (human) (UniProt Q8NE63)
FGFR3 (human) = FGFR3 (human) (UniProt P22607)
CAMK4 (human) = CAMK4 (human) (UniProt Q16566)
FES (human) = FES (human) (UniProt P07332)
EPHB4 (human) = EPHB4 (human) (UniProt P54760)
EPHA3 (human) = EPHA3 (human) (UniProt P29320)
CLK1 (human) = CLK1 (human) (UniProt P49759)
Chain of CLK1 (human) (P49759 whole entry, looked up): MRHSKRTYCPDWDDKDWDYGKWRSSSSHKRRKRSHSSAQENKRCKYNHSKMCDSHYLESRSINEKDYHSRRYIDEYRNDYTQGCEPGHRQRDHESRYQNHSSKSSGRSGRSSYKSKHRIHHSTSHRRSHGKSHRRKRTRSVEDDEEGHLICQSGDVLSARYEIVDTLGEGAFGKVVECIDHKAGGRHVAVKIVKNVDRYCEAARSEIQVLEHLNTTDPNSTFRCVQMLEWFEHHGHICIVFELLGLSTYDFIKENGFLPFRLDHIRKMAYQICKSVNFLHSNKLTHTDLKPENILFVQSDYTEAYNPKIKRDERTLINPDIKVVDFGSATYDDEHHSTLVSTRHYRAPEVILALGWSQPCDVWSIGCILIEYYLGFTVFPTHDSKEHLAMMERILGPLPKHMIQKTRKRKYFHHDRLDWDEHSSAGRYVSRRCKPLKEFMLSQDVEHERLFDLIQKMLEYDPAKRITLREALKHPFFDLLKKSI

[4] = system: ABL1 (human), P00519 [Q252H]
MUSK (human) = MUSK (human) (UniProt O15146)
Chain of MUSK (human) (O15146 whole entry, looked up): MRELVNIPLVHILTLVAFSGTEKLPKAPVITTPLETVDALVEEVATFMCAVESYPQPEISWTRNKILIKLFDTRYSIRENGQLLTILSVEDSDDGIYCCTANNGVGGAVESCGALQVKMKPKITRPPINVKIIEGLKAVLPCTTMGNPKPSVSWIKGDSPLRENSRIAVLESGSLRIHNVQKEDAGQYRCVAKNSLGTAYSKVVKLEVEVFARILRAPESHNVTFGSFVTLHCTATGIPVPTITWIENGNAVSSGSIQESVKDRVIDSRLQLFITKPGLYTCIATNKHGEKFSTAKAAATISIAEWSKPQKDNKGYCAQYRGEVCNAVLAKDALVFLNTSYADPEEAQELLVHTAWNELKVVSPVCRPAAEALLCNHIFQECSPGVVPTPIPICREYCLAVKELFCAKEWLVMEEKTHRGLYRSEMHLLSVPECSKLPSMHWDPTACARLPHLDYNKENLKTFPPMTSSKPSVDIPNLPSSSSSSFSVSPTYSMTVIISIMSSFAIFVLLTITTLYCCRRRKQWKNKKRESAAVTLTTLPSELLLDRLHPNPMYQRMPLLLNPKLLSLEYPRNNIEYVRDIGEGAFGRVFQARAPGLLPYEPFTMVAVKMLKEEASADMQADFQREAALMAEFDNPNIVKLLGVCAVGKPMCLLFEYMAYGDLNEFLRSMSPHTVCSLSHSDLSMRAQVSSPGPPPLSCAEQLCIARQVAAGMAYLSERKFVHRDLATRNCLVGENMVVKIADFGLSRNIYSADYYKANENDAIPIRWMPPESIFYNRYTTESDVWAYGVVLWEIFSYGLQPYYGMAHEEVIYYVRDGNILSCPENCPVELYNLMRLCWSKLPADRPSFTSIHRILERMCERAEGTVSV

PRKCH (human) = PRKCH (human) (UniProt P24723)
TTK (human) = TTK (human) (UniProt P33981)
STK33 (human) = STK33 (human) (UniProt Q9BYT3)
[5] = system: ABL1 (human), P00519 [M351T]
CDK8 (human) = CDK8 (human) (UniProt P49336)
Chain of CDK8 (human) (P49336 whole entry, looked up): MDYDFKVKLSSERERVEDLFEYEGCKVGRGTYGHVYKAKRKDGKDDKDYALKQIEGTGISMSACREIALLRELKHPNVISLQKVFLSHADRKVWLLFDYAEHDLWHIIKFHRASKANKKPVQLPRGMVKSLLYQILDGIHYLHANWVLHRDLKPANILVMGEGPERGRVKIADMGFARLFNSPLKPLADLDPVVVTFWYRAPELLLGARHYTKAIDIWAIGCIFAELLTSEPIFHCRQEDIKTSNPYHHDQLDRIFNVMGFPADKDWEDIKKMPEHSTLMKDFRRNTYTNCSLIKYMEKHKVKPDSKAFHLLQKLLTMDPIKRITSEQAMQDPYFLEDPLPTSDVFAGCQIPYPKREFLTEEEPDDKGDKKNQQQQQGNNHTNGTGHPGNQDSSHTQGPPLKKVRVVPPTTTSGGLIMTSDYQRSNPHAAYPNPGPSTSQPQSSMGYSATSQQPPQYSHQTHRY

CAMK2B (human) = CAMK2B (human) (UniProt Q13554)
CSNK1G2 (human) = CSNK1G2 (human) (UniProt P78368)
MARK1 (human) = MARK1 (human) (UniProt Q9P0L2)

kinase still bound, per cent of control (ULK2 (human)): 35%
kinase still bound, per cent of control (CDK3 (human)): 75%
kinase still bound, per cent of control (EPHA7 (human)): 62%
kinase still bound, per cent of control (STK25 (human)): 18%
kinase still bound, per cent of control (DCLK2 (human)): 100%
kinase still bound, per cent of control (PKN1 (human)): 79%
kinase still bound, per cent of control (NUAK1 (human)): 12%
kinase still bound, per cent of control [1]: 0%
kinase still bound, per cent of control (KDR (human)): 0.9%
kinase still bound, per cent of control (BMPR2 (human)): 46%
kinase still bound, per cent of control (PRKACB (human)): 100%
kinase still bound, per cent of control [2]: 0%
kinase still bound, per cent of control [3]: 4.2%
kinase still bound, per cent of control (CHUK (human)): 83%
kinase still bound, per cent of control (RAF1 (human)): 90%
kinase still bound, per cent of control (MST1R (human)): 100%
kinase still bound, per cent of control (STK39 (human)): 37%
kinase still bound, per cent of control (MAPK9 (human)): 63%
kinase still bound, per cent of control (PKMYT1 (human)): 90%
kinase still bound, per cent of control (MARK2 (human)): 19%
kinase still bound, per cent of control (RPS6KA4 KD1 (human)): 3.2%
kinase still bound, per cent of control (CDC42BPA (human)): 70%
kinase still bound, per cent of control (HIPK1 (human)): 7.6%
kinase still bound, per cent of control (PRKCQ (human)): 55%
kinase still bound, per cent of control (STK24 (human)): 12%
kinase still bound, per cent of control (HIPK4 (human)): 3%
kinase still bound, per cent of control (FGFR3 (human)): 12%
kinase still bound, per cent of control (CAMK4 (human)): 100%
kinase still bound, per cent of control (FES (human)): 100%
kinase still bound, per cent of control (EPHB4 (human)): 48%
kinase still bound, per cent of control (EPHA3 (human)): 1.7%
kinase still bound, per cent of control (CLK1 (human)): 34%
kinase still bound, per cent of control [4]: 3.8%
kinase still bound, per cent of control (MUSK (human)): 83%
kinase still bound, per cent of control (PRKCH (human)): 100%
kinase still bound, per cent of control (TTK (human)): 3.8%
kinase still bound, per cent of control (STK33 (human)): 11%
kinase still bound, per cent of control [5]: 2.2%
kinase still bound, per cent of control (CDK8 (human)): 100%
kinase still bound, per cent of control (CAMK2B (human)): 3.6%
kinase still bound, per cent of control (CSNK1G2 (human)): 78%
kinase still bound, per cent of control (MARK1 (human)): 38%
SMILES: O=C1Nc2cc(Br)ccc2/C1=C1/Nc2ccccc2/C1=N\O

kinase still bound, per cent of control (ULK2 (human)): 100%
kinase still bound, per cent of control (CDK3 (human)): 68%
kinase still bound, per cent of control (EPHA7 (human)): 100%
kinase still bound, per cent of control (STK25 (human)): 100%
kinase still bound, per cent of control (DCLK2 (human)): 100%
kinase still bound, per cent of control (PKN1 (human)): 100%
kinase still bound, per cent of control (NUAK1 (human)): 100%
kinase still bound, per cent of control [1]: 70%
kinase still bound, per cent of control (KDR (human)): 67%
kinase still bound, per cent of control (BMPR2 (human)): 100%
kinase still bound, per cent of control (PRKACB (human)): 98%
kinase still bound, per cent of control [2]: 100%
kinase still bound, per cent of control [3]: 100%
kinase still bound, per cent of control (CHUK (human)): 100%
kinase still bound, per cent of control (RAF1 (human)): 63%
kinase still bound, per cent of control (MST1R (human)): 100%
kinase still bound, per cent of control (STK39 (human)): 100%
kinase still bound, per cent of control (MAPK9 (human)): 84%
kinase still bound, per cent of control (PKMYT1 (human)): 53%
kinase still bound, per cent of control (MARK2 (human)): 100%
kinase still bound, per cent of control (RPS6KA4 KD1 (human)): 98%
kinase still bound, per cent of control (CDC42BPA (human)): 100%
kinase still bound, per cent of control (HIPK1 (human)): 58%
kinase still bound, per cent of control (PRKCQ (human)): 100%
kinase still bound, per cent of control (STK24 (human)): 84%
kinase still bound, per cent of control (HIPK4 (human)): 49%
kinase still bound, per cent of control (FGFR3 (human)): 100%
kinase still bound, per cent of control (FES (human)): 99%
kinase still bound, per cent of control (EPHB4 (human)): 100%
kinase still bound, per cent of control (EPHA3 (human)): 100%
kinase still bound, per cent of control (CLK1 (human)): 62%
kinase still bound, per cent of control [4]: 100%
kinase still bound, per cent of control (MUSK (human)): 100%
kinase still bound, per cent of control (PRKCH (human)): 100%
kinase still bound, per cent of control (TTK (human)): 100%
kinase still bound, per cent of control (STK33 (human)): 75%
kinase still bound, per cent of control [5]: 63%
kinase still bound, per cent of control (CDK8 (human)): 100%
kinase still bound, per cent of control (CAMK2B (human)): 100%
kinase still bound, per cent of control (CSNK1G2 (human)): 82%
kinase still bound, per cent of control (MARK1 (human)): 100%
SMILES: COc1ccc(CNC(=O)Nc2ncc([N+](=O)[O-])s2)cc1

kinase still bound, per cent of control (ULK2 (human)): 96%
kinase still bound, per cent of control (CDK3 (human)): 89%
kinase still bound, per cent of control (EPHA7 (human)): 100%
kinase still bound, per cent of control (STK25 (human)): 90%
kinase still bound, per cent of control (DCLK2 (human)): 100%
kinase still bound, per cent of control (PKN1 (human)): 100%
kinase still bound, per cent of control (NUAK1 (human)): 100%
kinase still bound, per cent of control [1]: 78%
kinase still bound, per cent of control (KDR (human)): 100%
kinase still bound, per cent of control (BMPR2 (human)): 90%
kinase still bound, per cent of control (PRKACB (human)): 100%
kinase still bound, per cent of control [2]: 100%
kinase still bound, per cent of control [3]: 100%
kinase still bound, per cent of control (CHUK (human)): 100%
kinase still bound, per cent of control (RAF1 (human)): 100%
kinase still bound, per cent of control (MST1R (human)): 100%
kinase still bound, per cent of control (STK39 (human)): 67%
kinase still bound, per cent of control (MAPK9 (human)): 87%
kinase still bound, per cent of control (PKMYT1 (human)): 100%
kinase still bound, per cent of control (MARK2 (human)): 100%
kinase still bound, per cent of control (RPS6KA4 KD1 (human)): 64%
kinase still bound, per cent of control (CDC42BPA (human)): 100%
kinase still bound, per cent of control (HIPK1 (human)): 87%
kinase still bound, per cent of control (PRKCQ (human)): 100%
kinase still bound, per cent of control (STK24 (human)): 97%
kinase still bound, per cent of control (HIPK4 (human)): 43%
kinase still bound, per cent of control (FGFR3 (human)): 100%
kinase still bound, per cent of control (CAMK4 (human)): 100%
kinase still bound, per cent of control (FES (human)): 100%
kinase still bound, per cent of control (EPHB4 (human)): 100%
kinase still bound, per cent of control (EPHA3 (human)): 100%
kinase still bound, per cent of control (CLK1 (human)): 49%
kinase still bound, per cent of control [4]: 100%
kinase still bound, per cent of control (MUSK (human)): 100%
kinase still bound, per cent of control (PRKCH (human)): 100%
kinase still bound, per cent of control (TTK (human)): 86%
kinase still bound, per cent of control (STK33 (human)): 100%
kinase still bound, per cent of control [5]: 99%
kinase still bound, per cent of control (CDK8 (human)): 100%
kinase still bound, per cent of control (CSNK1G2 (human)): 59%
kinase still bound, per cent of control (MARK1 (human)): 91%
SMILES: Cc1cnc(-c2cnc(NCCNc3ccc(C#N)cn3)nc2-c2ccc(Cl)cc2Cl)[nH]1
